Source: patent US20110214196A1, “DEVELOPMENT OF HERBICIDE-RESISTANT GRASS SPECIES” (University of Georgia Research Foundation, priority 2008, published 2011)

Legend:
[1] = test system: Large crabgrass (Digitaria sanguinalis) F2; test: Large crabgrass dose response study, F2 from self-pollinated surviving plants; assay type: in vivo
Description: (§1) Plants were grown from seed collected from a turfgrass sod farm near where sethoxydim had been continuously used for twelve years. Seeds were planted in 250 mL styrofoam cups with a potting mixture of pure sand in a glasshouse with supplemental lighting (300 uE/m2/s) and 30/25 temperature. Plants were watered once daily and fertilized once a week. Large crabgrass plants were treated with herbicides when 3-5 cm tall in a dose response study. Four herbicides (sethoxydim, fluazifop, clethodim, and pinoxaden) were applied at […]. Plant injury was observed 7 and 14 DAT. The experimental design consisted of a randomized complete block design with three replications. The experiment was replicated in time.
In response to all four herbicides, the plants initially illutrated typical ACCase symptomology, but recovered in 7-14 days after treatment (DAT). […] Seeds from self-pollinated surviving large crabgrass plants were collected and analyzed using the same dose response design as state before. […] The ED50 was approximately 10 times greater for the resistant (R) population than that for the wild type (S) population.

[2] = test system: Large crabgrass (Digitaria sanguinalis); test: Large crabgrass dose response study, plants from sod farm seed; assay type: in vivo; settings: for resistance or susceptibility of this population of large crabgrass: conclusion from ED50 values; for effective dose required to cause 50% injury (ED50): large crabgrass grown from sod farm seed, treated when 3-5 cm tall
Description: as §1

Compound: CCSC(C)CC1CC(=O)C(/C(CC)=N/OC/C=C/Cl)=C(O)C1 (racemic) [clethodim, (E,E)-(±)-2-[1-[[(3-chloro-2-propenyl)oxy]imino]propyl]-5-[2-(ethylthio)propyl]-3-hydroxy-2-cyclohexen-1-one]
- effective dose required to cause 50% injury (ED50) [1]: 28±22 g ai/ha
- resistance or susceptibility of this population of large crabgrass [2]: susceptible
- effective dose required to cause 50% injury (ED50) [2]: 51±4 g ai/ha

Compound: CCc1cc(C)cc(CC)c1-c1c(OC(=O)C(C)(C)C)n2n(c1=O)CCOCC2 [pinoxaden]
- effective dose required to cause 50% injury (ED50) [1]: 131±44 g ai/ha
- resistance or susceptibility of this population of large crabgrass [2]: resistant
- effective dose required to cause 50% injury (ED50) [2]: 168±29 g ai/ha
